In PubChem BioAssay (NCI):
Where “and” joins values, the source holds several entries; their conditions need not be identical. Equal entries are not always repeated.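 Grown in 96-well plates, cells were treated for 48 hours with each compound at five concentrations. Insufficient inhibition: endpoint recorded as highest concentration tested. GI50 = concentration required for 50% inhibition of growth. TGI: concentration producing complete growth inhibition.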

Key:
Assay in all cases: NCI tumour cell line growth inhibition, 48 h
HCC-2998 colon = test system: HCC-2998 colon
HOP-62 NSCLC = test system: HOP-62 NSCLC
HT29 colon = test system: HT29 colon
OVCAR-8 ovarian = test system: OVCAR-8 ovarian
RPMI-8226 leukemia = test system: RPMI-8226 leukemia
RXF 393 renal = test system: RXF 393 renal
SW-620 colon = test system: SW-620 colon
UACC-62 melanoma = test system: UACC-62 melanoma
HOP-92 NSCLC = test system: HOP-92 NSCLC
PC-3 prostate = test system: PC-3 prostate

Structure (SMILES) | TGI (HCC-2998 colon) | TGI (HOP-62 NSCLC) | TGI (HT29 colon) | TGI (OVCAR-8 ovarian) | TGI (RPMI-8226 leukemia) | TGI (RXF 393 renal) | TGI (SW-620 colon) | TGI (UACC-62 melanoma) | TGI (HOP-92 NSCLC) | GI50 (HOP-62 NSCLC) | GI50 (RXF 393 renal) | GI50 (SW-620 colon) | GI50 (HCC-2998 colon) | GI50 (HOP-92 NSCLC) | GI50 (HT29 colon) | GI50 (OVCAR-8 ovarian) | GI50 (RPMI-8226 leukemia) | GI50 (UACC-62 melanoma) | GI50 (PC-3 prostate) [µM] | TGI (PC-3 prostate) [µM]
C1CCN2CC3CONC3C2C1 (stereo not drawn) | > 100 µM | > 100 µM | > 100 µM | > 100 µM | > 100 µM | > 100 µM | > 100 µM | > 100 µM |  |  |  |  |  |  |  |  |  |  |  | 
Cc1csc(CCC(N)C(=O)O)n1 (stereo not drawn) | > 100 µM |  | > 100 µM | > 100 µM | > 100 µM | > 100 µM | > 100 µM | > 100 µM | > 100 µM |  |  |  |  |  |  |  |  |  |  | 
CC(=O)c1c(O)c2c([nH]c1=O)CCCC2 | 53.4 µM | 46.5 µM | > 100 µM | > 100 µM |  | 67.6 µM | > 100 µM | 43.3 µM | > 100 µM |  |  |  |  |  |  |  |  |  |  | 
O=C(Nc1ccc(Br)cc1)Nc1cccc(Br)c1 |  | > 100 µM |  |  |  | > 100 µM | > 100 µM |  |  | 7.24 µM | > 100 µM | 5.54 µM |  |  |  |  |  |  |  | 
O=C(Nc1ccc(Cl)c(Cl)c1)C1C(=O)N(c2ccc(Cl)c(Cl)c2)C(=O)/C1=N\O (stereo not drawn) | > 100 µM | > 100 µM | > 100 µM | > 100 µM | > 100 µM |  | > 100 µM | > 100 µM | > 100 µM |  |  |  |  |  |  |  |  |  |  | 
c1ccc2c(c1)[O][Sn][O]2 | > 150 µg/mL | > 150 µg/mL | > 150 µg/mL | > 150 µg/mL | > 150 µg/mL | 120 µg/mL | > 150 µg/mL | > 150 µg/mL | > 150 µg/mL | 36.1 µg/mL | 23.4 µg/mL | 69 µg/mL | 81.5 µg/mL | 64.8 µg/mL | 95.4 µg/mL | 45.3 µg/mL | 7.54 µg/mL | 35.5 µg/mL |  | 
Nc1ccn([C@@H]2S[C@H](CO)[C@@H](O)[C@@H]2F)c(=O)n1 | > 100 µM | > 74.3 µM | > 100 µM | > 100 µM | > 100 µM | > 22.4 µM | > 100 µM | > 38.2 µM | > 100 µM | 0.0526 µM | 0.289 µM | 0.252 µM | 3.03 µM | 0.278 µM | 0.178 µM | 0.026 µM | 2.65 µM | 0.372 µM |  | 
CC1CCC2c3c([nH]c4ccccc34)C3C(=O)N(c4ccccc4)C(=O)C3C2C1 (stereo not drawn) | > 250 µM | 92 µM | > 250 µM | > 250 µM |  | 33.7 µM | > 250 µM | 82.2 µM and > 250 µM | 56.8 µM |  |  |  |  |  |  | > 250 µM |  | 22.7 µM |  | 
CCOc1ccc(/C=C2/C(=O)N=C(N)N=C2N)cc1OCC | > 100 µM |  | > 100 µM | > 100 µM | > 100 µM | > 100 µM | > 100 µM | > 100 µM | > 100 µM |  |  |  |  |  |  |  |  |  |  | 
CN(C)CCNC(=O)c1cccc2cc3ccc4ccccc4c3nc12 | 0.252 µM | 0.309 µM | 0.701 µM | 0.316 µM | 0.527 µM | 0.267 µM | 1.19 µM | 0.23 µM | 0.593 µM |  |  |  |  |  |  |  |  |  |  | 
O=C1c2ccccc2-c2c1c1ccc([N+](=O)[O-])cc1c(=O)n2CCCCl |  | > 100 µM | > 100 µM | > 100 µM | 33.3 µM | > 100 µM | > 100 µM | > 100 µM | > 100 µM | 43.8 µM | > 100 µM | 3.12 µM |  | 22.9 µM | 65 µM | 72.1 µM | 1.36 µM | 20.3 µM | 15.2 | > 100
Nc1c(C(=O)Nc2ccccc2O)[n+]([O-])c2ccccc2[n+]1[O-] |  | > 100 µM | > 100 µM | > 100 µM | > 100 µM |  | 48.6 µM |  | > 100 µM |  |  |  |  |  |  |  |  |  |  | 
CCOC(=O)C1=CSC2=NC3=C(CCC/C3=C\c3cc(OC)c(OC)c(OC)c3)C(c3cc(OC)c(OC)c(OC)c3)N12 (stereo not drawn) |  | > 100 µM | > 100 µM | > 100 µM | 1.67 µM |  | > 100 µM | > 100 µM | 7.5 µM | 1.43 µM |  | 1.54 µM |  | 0.818 µM | 1.34 µM | 0.376 µM | 0.333 µM | 2.71 µM | 0.751 | > 100
Cn1cc(NC(=O)c2cc(NC(=O)CCCCCCCC(=O)Nc3cc(C(=O)Nc4cc(C(=O)NCCC(=N)N)n(C)c4)n(C)c3)cn2C)cc1C(=O)NCCC(=N)N | 30.2 µM | > 100 µM | > 100 µM | 42.9 µM |  | 41.3 µM | > 100 µM | 36.8 µM | > 100 µM |  |  |  |  |  |  |  |  |  |  | 
O=c1[nH]c(=O)n(C2CC(O)C(O)C(CO)O2)cc1F (stereo not drawn) | > 100 µM | > 100 µM | > 100 µM | > 100 µM | > 100 µM | > 100 µM | > 100 µM | > 100 µM | > 100 µM |  |  |  |  |  |  |  |  |  |  | 
